Test results taken from patent US12201679B2, “Epitope-targeted peptide immunostimulants” (priority 2019, dated 2025).
Read-outs that look alike come from different tables or passages of the source. Bridge positions count the residues as written; N and C are the ends. Square brackets hold non-standard residues; d marks the D form. Triazole bridges read from a SMILES are 1,4-linked. Peptide text beside a SMILES is read from it. * marks the point of attachment. Biotin = O=C1N[C@H]2[C@H](CS[C@H]2CCCCC(=O)*)N1; PEG10 = NCCOCCOCCOCCOCCOCCOCCOCCOCCOCCOCCC(=O)O; Lys(N3) = [N-]=[N+]=NCCCC[C@H](N)C(=O)O; Orn(N3) = [N-]=[N+]=NCCC[C@H](N)C(=O)O; PEG5 = NCCOCCOCCOCCOCCOCCC(=O)O; Pra = C#CC[C@H](N)C(=O)O

Assays:
[1] = Isocratic point, elution from C18 prep-scale column; type: physicochemical; details: elution from C18 column
Procedure: PCC compounds were purified on a Waters Autopurification system, which isolated compounds based on MS peaks corresponding to protonated [M+1H]^+ and [M+2H]^2+, and/or sodium adducts [M+Na]^+ and [M+2Na]^2+. The isocratic points of PCCs were determined based on the elution of the compound from a C18 prep-scale column. Synthetic epitopes were either purified on the Waters Autopurification System, or by semi-preparative HPLC and then using matrix-assisted laser desorption/ionization mass spectroscopy to identify fractions with the desired m/z ratio. The resulting peptides were lyophilized, the yield determined by mass difference or UV-visible absorbance, and resuspended at a concentration of up to 10 mM peptide in DMSO. Peptides were stored at −80° C. before thawing for each use.

[2] = molecular target: full-length recombinant MrkA protein (Klebsiella pneumoniae, UniProt P12267); type: binding; details: for affinities to MrkA: ELISA, stated as 'likely'; for binding to full-length MrkA compared to cy(LLFFF): sandwich ELISA, alanine scan and analogues
Source text: HPraGly is present before X1 in each peptide and Az4 follows X5 in each peptide.

Row | Compound | Isocratic point (%) [1] [%] | affinities to MrkA [2] [µM] | binding to full-length MrkA compared to cy(LLFFF) [2] | other results
1 | CC(C)C[C@@H]1NC(=O)[C@@H](NC(=O)CCOCCOCCOCCOCCOCCOCCOCCOCCOCCOCCNC(=O)CCCC[C@@H]2SC[C@@H]3NC(=O)N[C@@H]32)Cc2cn(nn2)CCC[C@@H](C(N)=O)NC(=O)[C@H](Cc2ccccc2)NC(=O)[C@H](Cc2ccccc2)NC(=O)[C@H](Cc2ccccc2)NC(=O)[C@H](CC(C)C)NC1=O [compound 10] ({Biotin-PEG10}-[Pra]LLFFF[Orn(N3)]-NH2; triazole 1-7) | 76.89 |  |  | Relative affinity (ratio of ELISA signal versus cy(LLFFF)) ([2]; ELISA 3, [MrkA] 50 nM): 0.89
2 | CC(C)C[C@@H]1NC(=O)[C@H](C)NC(=O)[C@@H](NC(=O)CCOCCOCCOCCOCCOCCOCCOCCOCCOCCOCCNC(=O)CCCC[C@@H]2SC[C@@H]3NC(=O)N[C@@H]32)Cc2cn(nn2)CCCC[C@@H](C(N)=O)NC(=O)[C@H](Cc2ccccc2)NC(=O)[C@H](Cc2ccccc2)NC(=O)[C@H](Cc2ccccc2)NC1=O [compound 2] ({Biotin-PEG10}-[Pra]ALFFF[Lys(N3)]-NH2; triazole 1-7) | 65.55 |  |  | Relative affinity (ratio of ELISA signal versus cy(LLFFF)) ([2]; ELISA 2, [MrkA] 25 nM): 0.53
3 | CC(C)C[C@@H]1NC(=O)[C@@H](NC(=O)CCOCCOCCOCCOCCOCCOCCOCCOCCOCCOCCNC(=O)[C@H](CCCNC(=N)N)NC(=O)[C@H](CCCNC(=N)N)NC(=O)[C@H](CCCNC(=N)N)NC(=O)CCOCCOCCOCCOCCOCCOCCOCCOCCOCCOCCNC(=O)CCCC[C@@H]2SC[C@@H]3NC(=O)N[C@@H]32)Cc2cn(nn2)CCCC[C@@H](C(N)=O)NC(=O)[C@H](Cc2ccccc2)NC(=O)[C@H](Cc2ccccc2)NC(=O)[C@H](Cc2ccccc2)NC(=O)[C@H](CC(C)C)NC1=O [compound 16] ({Biotin-PEG10}-RRR[PEG10][Pra]LLFFF[Lys(N3)]-NH2; triazole 5-11) | 45.02 |  |  | Relative affinity (ratio of ELISA signal versus cy(LLFFF)) ([2]; ELISA 5, [MrkA] 25 nM): 0.90
4 | CC(C)C[C@@H]1NC(=O)[C@H](Cc2c[nH]cn2)NC(=O)[C@@H](NC(=O)CCOCCOCCOCCOCCOCCOCCOCCOCCOCCOCCNC(=O)CCCC[C@@H]2SC[C@@H]3NC(=O)N[C@@H]32)Cc2cn(nn2)CCCC[C@@H](C(N)=O)NC(=O)[C@H](Cc2ccccc2)NC(=O)[C@H](Cc2ccccc2)NC(=O)[C@H](Cc2ccccc2)NC1=O [compound 19] ({Biotin-PEG10}-[Pra]HLFFF[Lys(N3)]-NH2; triazole 1-7) | 47.52 |  |  | Relative affinity (ratio of ELISA signal versus cy(LLFFF)) ([2]; ELISA 6, [MrkA] 25 nM): 0.81
5 | C[C@@H](O)[C@@H]1NC(=O)[C@@H](NC(=O)CCOCCOCCOCCOCCOCCNC(=O)CCCC[C@@H]2SC[C@@H]3NC(=O)N[C@@H]32)Cc2cn(nn2)CCCC[C@@H](C(N)=O)NC(=O)[C@H](Cc2ccccc2)NC(=O)[C@H](Cc2ccccc2)NC(=O)[C@H](Cc2ccccc2)NC(=O)[C@H]([C@@H](C)O)NC1=O [cy(TTFFF)] ({Biotin-PEG5}-[Pra]TTFFF[Lys(N3)]-NH2; triazole 1-7; N-terminus assumed) |  | ~1 | lower affinities | 
6 | CC(C)C[C@@H]1NC(=O)[C@H](Cc2c[nH]cn2)NC(=O)[C@H](CCCNC(=N)N)NC(=O)[C@H](Cc2ccc(O)cc2)NC(=O)[C@@H](NC(=O)CCOCCOCCOCCOCCOCCNC(=O)CCCC[C@@H]2SC[C@@H]3NC(=O)N[C@@H]32)Cc2cn(nn2)CCCC[C@@H](C(N)=O)NC(=O)CNC1=O [cy(YRHLG)] ({Biotin-PEG5}-[Pra]YRHLG[Lys(N3)]-NH2; triazole 1-7) |  | ~1 | lower affinities | 
7 | cy(LLAFF) (cyclic) |  |  | Modestly lower binding | 
8 | cy(LAFFF) (cyclic) |  |  | Modestly lower binding | 
9 | CC(C)C[C@@H]1NC(=O)[C@H](CCCNC(=N)N)NC(=O)[C@H](Cc2c[nH]cn2)NC(=O)[C@H](C(C)C)NC(=O)CNC(=O)[C@@H](NC(=O)CCOCCOCCOCCOCCOCCNC(=O)CCCC[C@@H]2SC[C@@H]3NC(=O)N[C@@H]32)Cc2cn(nn2)CCCC[C@@H](C(N)=O)NC1=O [cy(GVHRL)] ({Biotin-PEG5}-[Pra]GVHRL[Lys(N3)]-NH2; triazole 1-7) |  | ~1 | lower affinities | 
10 | cy(ALFFF) (cyclic) |  |  | Modestly lower binding | 
